According to ChEMBL document CHEMBL6087456 (J Med Chem, 2025):
Calls of active or inactive are those of the source. No cut-off for these calls is given here.

Columns and labels:
[1] = system: Plasmodium falciparum; assay: Antimalarial activity against erythrocyte asexual stage Plasmodium falciparum 3D7 0087/N9 infected in humanized SCID mouse model at 1 to 30 mg/kg administered once daily for 6 days measured on day 9; type: functional, organism-based; details: dose 1-30 mg/kg, time 6.0 day
[2] = biological target: Cytochrome P450 2C19 (Homo sapiens, UniProt P33261); assay: Time-dependent inhibition of CYP2C19 in human liver microsomes; type: ADME, Microsome
Chain of Cytochrome P450 2C19 (P33261 whole entry): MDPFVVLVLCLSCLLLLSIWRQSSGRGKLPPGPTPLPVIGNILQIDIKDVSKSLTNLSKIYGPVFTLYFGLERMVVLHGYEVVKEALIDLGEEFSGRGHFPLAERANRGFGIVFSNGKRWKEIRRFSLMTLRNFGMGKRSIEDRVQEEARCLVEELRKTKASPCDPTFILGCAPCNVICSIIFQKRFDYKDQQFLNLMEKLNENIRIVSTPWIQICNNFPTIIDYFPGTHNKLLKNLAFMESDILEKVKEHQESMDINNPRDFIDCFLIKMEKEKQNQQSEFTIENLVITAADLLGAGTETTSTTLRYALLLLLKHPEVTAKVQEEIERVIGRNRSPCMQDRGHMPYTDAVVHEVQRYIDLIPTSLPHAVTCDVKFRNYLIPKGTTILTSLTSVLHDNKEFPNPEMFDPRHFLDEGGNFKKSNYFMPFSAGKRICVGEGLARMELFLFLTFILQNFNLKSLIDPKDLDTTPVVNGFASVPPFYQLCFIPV

[3] = biological target: Cytochrome P450 3A5 (Homo sapiens, UniProt P20815); assay: Time-dependent inhibition of CYP3A5 in human liver microsomes; type: ADME, Microsome
Chain of Cytochrome P450 3A5 (P20815 whole entry, the tested form may be a part): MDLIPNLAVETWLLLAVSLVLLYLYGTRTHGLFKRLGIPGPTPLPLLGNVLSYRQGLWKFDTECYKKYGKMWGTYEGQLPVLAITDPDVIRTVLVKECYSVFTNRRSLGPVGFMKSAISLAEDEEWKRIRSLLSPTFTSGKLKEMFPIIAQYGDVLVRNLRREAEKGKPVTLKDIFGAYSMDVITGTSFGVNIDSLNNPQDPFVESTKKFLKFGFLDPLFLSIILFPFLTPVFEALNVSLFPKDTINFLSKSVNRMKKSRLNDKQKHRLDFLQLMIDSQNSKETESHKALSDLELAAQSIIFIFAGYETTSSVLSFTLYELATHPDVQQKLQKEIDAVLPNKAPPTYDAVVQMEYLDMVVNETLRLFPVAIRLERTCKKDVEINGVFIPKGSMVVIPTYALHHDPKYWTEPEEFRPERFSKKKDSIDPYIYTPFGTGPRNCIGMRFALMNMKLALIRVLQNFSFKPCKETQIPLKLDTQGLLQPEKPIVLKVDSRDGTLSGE

[4] = biological target: T1, Dihydroorotate dehydrogenase (quinone), mitochondrial (Plasmodium falciparum (isolate 3D7), UniProt Q08210); assay: Inhibition of N-terminal His6-tagged recombinant Plasmodium falciparum DHODH (158 to 569 residues) N-terminally truncated soluble domain extracted from Escherichia coli phage resistant BL21-DE3 using CoQD/DHA/DCIP as substrates
T1 sequence (Q08210 whole entry): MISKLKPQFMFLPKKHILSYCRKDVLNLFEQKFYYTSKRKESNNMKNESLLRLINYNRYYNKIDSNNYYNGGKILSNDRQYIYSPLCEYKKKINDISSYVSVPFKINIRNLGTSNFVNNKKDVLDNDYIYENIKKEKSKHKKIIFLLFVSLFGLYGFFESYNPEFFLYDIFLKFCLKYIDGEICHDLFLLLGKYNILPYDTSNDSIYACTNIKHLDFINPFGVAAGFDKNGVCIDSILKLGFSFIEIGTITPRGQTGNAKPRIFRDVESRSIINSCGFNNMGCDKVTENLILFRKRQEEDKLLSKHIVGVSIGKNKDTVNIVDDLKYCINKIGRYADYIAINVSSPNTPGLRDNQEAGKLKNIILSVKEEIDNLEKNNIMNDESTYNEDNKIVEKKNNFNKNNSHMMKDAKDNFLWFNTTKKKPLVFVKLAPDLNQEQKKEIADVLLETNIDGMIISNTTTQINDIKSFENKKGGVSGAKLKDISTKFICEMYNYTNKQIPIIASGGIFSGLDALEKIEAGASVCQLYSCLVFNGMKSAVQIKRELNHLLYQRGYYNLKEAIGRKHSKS

[5] = Toxicity in humanized SCID mouse model infected with erythrocyte asexual stage Plasmodium falciparum 3D7 0087/N9 assessed as drug tolerance at 1 to 30 mg/kg administered once daily for 6 days; type: organism-based; details: in vivo, dose 1-30 mg/kg, time 6 day
[6] = biological target: T2, Cytochrome P450 1A2 (Homo sapiens, UniProt P05177); assay: Time-dependent inhibition of CYP1A2 in human liver microsomes; type: ADME, Microsome
T2 sequence (P05177 whole entry): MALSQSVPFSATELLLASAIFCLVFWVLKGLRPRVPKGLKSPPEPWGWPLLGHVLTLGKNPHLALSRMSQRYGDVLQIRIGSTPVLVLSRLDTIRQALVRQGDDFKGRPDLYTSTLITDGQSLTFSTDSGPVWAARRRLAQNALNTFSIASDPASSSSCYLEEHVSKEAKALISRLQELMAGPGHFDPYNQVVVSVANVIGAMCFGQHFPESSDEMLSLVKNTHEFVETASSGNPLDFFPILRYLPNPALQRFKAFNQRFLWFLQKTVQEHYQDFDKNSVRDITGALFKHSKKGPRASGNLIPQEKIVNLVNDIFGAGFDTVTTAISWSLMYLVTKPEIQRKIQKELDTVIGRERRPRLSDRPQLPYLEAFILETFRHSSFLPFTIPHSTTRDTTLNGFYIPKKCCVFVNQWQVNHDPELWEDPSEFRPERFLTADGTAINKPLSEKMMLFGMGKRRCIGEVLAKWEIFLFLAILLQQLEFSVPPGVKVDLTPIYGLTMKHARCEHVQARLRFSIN

[7] = Oral absorption in overnight-fasted male Sprague-Dawley rat at 3 mg/kg measured upto 72 hrs by LCMS analysis; type: ADME, organism-based; details: in vivo
[8] = biological target: T2, Cytochrome P450 1A2; assay: Inhibition of CYP1A2 in human liver microsomes; type: ADME, Microsome
[9] = biological target: Voltage-gated inwardly rectifying potassium channel KCNH2 (Homo sapiens, UniProt Q12809); assay: Inhibition of hERG expressed in CHO cells by whole-cell patch-clamp assay; type: toxicity, cell-based
Chain of Voltage-gated inwardly rectifying potassium channel KCNH2 (Q12809 whole entry): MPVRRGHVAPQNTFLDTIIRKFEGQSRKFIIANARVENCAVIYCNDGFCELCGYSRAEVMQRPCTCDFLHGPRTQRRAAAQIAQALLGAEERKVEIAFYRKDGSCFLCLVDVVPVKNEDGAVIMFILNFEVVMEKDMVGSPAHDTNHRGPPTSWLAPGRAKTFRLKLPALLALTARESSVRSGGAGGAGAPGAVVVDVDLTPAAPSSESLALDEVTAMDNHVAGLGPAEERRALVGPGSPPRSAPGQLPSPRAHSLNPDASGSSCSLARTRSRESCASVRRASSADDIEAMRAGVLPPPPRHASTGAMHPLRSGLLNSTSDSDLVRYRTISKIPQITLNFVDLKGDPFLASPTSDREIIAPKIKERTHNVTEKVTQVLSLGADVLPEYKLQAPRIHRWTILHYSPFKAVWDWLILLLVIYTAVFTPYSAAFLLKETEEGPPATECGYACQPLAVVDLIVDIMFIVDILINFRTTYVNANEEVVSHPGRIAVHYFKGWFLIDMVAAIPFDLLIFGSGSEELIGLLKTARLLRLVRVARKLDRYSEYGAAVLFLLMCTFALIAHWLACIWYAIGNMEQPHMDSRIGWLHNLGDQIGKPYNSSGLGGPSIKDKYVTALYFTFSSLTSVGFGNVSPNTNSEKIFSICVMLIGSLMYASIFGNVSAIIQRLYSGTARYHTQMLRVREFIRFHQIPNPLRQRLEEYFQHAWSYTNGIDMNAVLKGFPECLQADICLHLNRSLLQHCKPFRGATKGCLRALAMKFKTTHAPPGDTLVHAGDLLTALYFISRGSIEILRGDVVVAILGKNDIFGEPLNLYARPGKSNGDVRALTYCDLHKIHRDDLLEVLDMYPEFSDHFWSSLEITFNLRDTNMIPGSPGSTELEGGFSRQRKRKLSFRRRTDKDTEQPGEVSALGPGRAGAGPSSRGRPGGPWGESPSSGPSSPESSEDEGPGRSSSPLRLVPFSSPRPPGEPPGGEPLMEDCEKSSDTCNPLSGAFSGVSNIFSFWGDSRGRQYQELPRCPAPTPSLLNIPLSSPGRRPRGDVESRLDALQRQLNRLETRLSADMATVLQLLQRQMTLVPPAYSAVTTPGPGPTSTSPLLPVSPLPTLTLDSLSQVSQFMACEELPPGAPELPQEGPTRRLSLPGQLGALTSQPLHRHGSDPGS

SMILES: Cn1nc2c(=O)n(C3CC3)cnc2c1[C@](O)(c1cnc(C(F)(F)F)c(Cl)c1)C(F)(F)F
- Activity [1]: Active
- TDI [2]: Not_active
- TDI [3]: Not_active
- IC50 [4]: 0.015 µM
- Activity [5]: Non-toxic
- TDI [6]: Not_active
- Fa at 72 h [7]: 100%
- IC50 [8]: > 20 µM
- EC50 [9]: ~50 µM
